According to article PMC7311426, “An amphipathic peptide with antibiotic activity against multidrug-resistant Gram-negative bacteria” (Nature Communications, 2020):
Converted amounts (≈) assume the structure as drawn. Read-outs that look alike come from different tables or passages of the source.

Experiments:
Assay in all cases: microbe, parasite or virus in culture
[1] = tested on: A. baumannii clinical isolates
Summary of the method: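 MIC90 from CLSI broth microdilution (M07-A9) in two clinical-isolate panels. US panel (331 isolates, 2010-2012): AA139 diluted in 0.01% acetic acid/0.1% BSA. Worldwide panel (445 isolates, 2011-2013, four regions): CAMHB, with 0.002% Tween 80 added for AA139 and polymyxin B.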

K. pneumoniae = conditions: Klebsiella pneumoniae
Summary of the method: (§1)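 Broth microdilution in MHB, 2-fold 12-point series from 128 or 64 down to 0.06 or 0.03 μg mL^−1, 5 × 10^5 CFU mL^−1. Extra runs in CAMHB per CLSI and in MHB with 1% agarose; n ≥ 6.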

E. coli = conditions: Escherichia coli
Summary of the method: as §1

S. enterica Typhi = conditions: Salmonella enterica, ATCC14028 / TYPHI, read-out: BMD MIC
Summary of the method: as §1

A. baumannii = conditions: Acinetobacter baumannii, mode of 6 replicates
Summary of the method: as §1

S. aureus = tested on: S. aureus
Summary of the method: as §1

P. aeruginosa = conditions: Pseudomonas aeruginosa
Summary of the method: as §1

[2] = A. baumannii, worldwide isolates 2011-2013, n = 108

`C[C@@H](O)[C@H]1C(=O)N2C(C(=O)O)=C(S[C@@H]3CN[C@H](C(=O)N(C)C)C3)[C@H](C)[C@H]12` [Meropenem, meropenem, reference compound] was tested, and the “Number of isolates with MIC 0.125 (MIC frequency distribution)” value [1] was 4, the MIC50 [1, 2] was over 16 mg/L and the MIC90 [1, 2] was over 16 mg/L. For the same compound, the “Number of isolates with MIC 0.03 (MIC frequency distribution)” value ([1]; A. baumannii, worldwide isolates 2011-2013, n = 108, count of isolates at MIC 0.03) was 0, the “Number of isolates with MIC 0.06 (MIC frequency distribution)” value ([1]; A. baumannii, worldwide isolates 2011-2013, n = 108, count of isolates at MIC 0.06) was 1 and the “Number of isolates with MIC 0.25 (MIC frequency distribution)” value ([1]; A. baumannii, worldwide isolates 2011-2013, n = 108, count of isolates at MIC 0.25) was 10. For the same compound, the “Number of isolates with MIC 0.5 (MIC frequency distribution)” value ([1]; A. baumannii, worldwide isolates 2011-2013, n = 108, count of isolates at MIC 0.5) was 2, the “Number of isolates with MIC 1 (MIC frequency distribution)” value ([1]; A. baumannii, worldwide isolates 2011-2013, n = 108, count of isolates at MIC 1) was 1 and the “Number of isolates with MIC 2 (MIC frequency distribution)” value ([1]; A. baumannii, worldwide isolates 2011-2013, n = 108, count of isolates at MIC 2) was 3. For the same compound, the “Number of isolates with MIC 4 (MIC frequency distribution)” value ([1]; A. baumannii, worldwide isolates 2011-2013, n = 108, count of isolates at MIC 4) was 2, the “Number of isolates with MIC 8 (MIC frequency distribution)” value ([1]; A. baumannii, worldwide isolates 2011-2013, n = 108, count of isolates at MIC 8) was 2 and the “Number of isolates with MIC 16 (MIC frequency distribution)” value ([1]; A. baumannii, worldwide isolates 2011-2013, n = 108, count of isolates at MIC 16) was 1. The “Number of isolates with MIC 32 (MIC frequency distribution)” value ([1]; A. baumannii, worldwide isolates 2011-2013, n = 108, count of isolates at MIC 32) was 0, the “Number of isolates with MIC 64 (MIC frequency distribution)” value ([1]; A. baumannii, worldwide isolates 2011-2013, n = 108, count of isolates at MIC 64) was 0 and the “Number of isolates with MIC 128 (MIC frequency distribution)” value ([1]; A. baumannii, worldwide isolates 2011-2013, n = 108, count of isolates at MIC 128) was 0. The “Number of isolates with MIC >16 (MIC frequency distribution)” value ([1]; A. baumannii, worldwide isolates 2011-2013, n = 108, count of isolates at MIC >16) was 82, the “Number of isolates with MIC >32 (MIC frequency distribution)” value ([1]; A. baumannii, worldwide isolates 2011-2013, n = 108, count of isolates at MIC >32) was 0 and the “Number of isolates with MIC >128 (MIC frequency distribution)” value ([1]; A. baumannii, worldwide isolates 2011-2013, n = 108, count of isolates at MIC >128) was 0. The “Number of isolates with MIC ≤0.015 (MIC frequency distribution)” value ([1]; A. baumannii, worldwide isolates 2011-2013, n = 108, count of isolates at MIC ≤0.015) was 0, the MIC90 ([1]; Acinetobacter baumannii) was over 16 mg/L and the MIC90 ([1]; US isolates 2010–2012, A. baumannii MDR, n = 19) was over 16 mg/L. It also gave an MIC90 ([1]; US isolates 2010–2012, A. baumannii XDR, n = 31) of over 16 mg/L, an MIC (K. pneumoniae; ATCC13883, read-out: BMD MIC, K. pneumoniae ATCC 13883 type strain (polymyxin/colistin heteroresistant), MHB, mode of 6 replicates) of at most 0.25 mg/L and an MIC (K. pneumoniae; ATCC700603, read-out: BMD MIC, K. pneumoniae ATCC 700603 (K6), MDR, OXA-2/SHV-18, CAMHB, mode of 6 replicates) of 0.06 mg/L (≈ 0.156 µM). The MIC (K. pneumoniae; ATCC700603, read-out: BMD MIC, K. pneumoniae ATCC 700603 (K6), MDR, OXA-2/SHV-18, MHB, mode of 6 replicates) was at most 0.25 mg/L, the MIC (K. pneumoniae; BAA2146, read-out: BMD MIC, K. pneumoniae BAA-2146, MDR, ESBL, NDM-1 pos, MHB, mode of 6 replicates) was over 32 mg/L and the MIC (K. pneumoniae; read-out: BMD MIC, K. pneumoniae Greece CI 8_GR_13, XDR, KPC-2, PmxR, MHB, mode of 6 replicates) was over 32 mg/L. The MIC (K. pneumoniae; read-out: MIC, broth microdilution, K. pneumoniae 3010 spontaneous mutant, AA139 selection 4X, plate 1, colony 1, drug-free passage 1) was 0.03 mg/L (≈ 0.0782 µM), the MIC (K. pneumoniae; read-out: MIC, broth microdilution, K. pneumoniae 3010 spontaneous mutant, AA139 selection 4X, plate 1, colony 1, drug-free passage 5) was 0.015 mg/L (≈ 0.0391 µM) and the MIC (K. pneumoniae; read-out: MIC, broth microdilution, K. pneumoniae 3010 spontaneous mutant, AA139 selection 8X, plate 1, colony 1, drug-free passage 1) was 0.03 mg/L (≈ 0.0782 µM). The MIC (K. pneumoniae; read-out: MIC, broth microdilution, K. pneumoniae 3010 spontaneous mutant, AA139 selection 8X, plate 1, colony 1, drug-free passage 5) was 0.03 mg/L (≈ 0.0782 µM), the MIC (K. pneumoniae; read-out: MIC, broth microdilution, K. pneumoniae ST258 spontaneous mutant, AA139 selection 4X, plate 1, colony 1, drug-free passage 1) was over 4 mg/L and the MIC (K. pneumoniae; read-out: MIC, broth microdilution, K. pneumoniae ST258 spontaneous mutant, AA139 selection 4X, plate 1, colony 1, drug-free passage 5) was over 4 mg/L. It also gave an MIC (E. coli; ATCC25922, read-out: BMD MIC, E. coli ATCC 25922 FDA control strain, CAMHB, mode of 6 replicates) of at most 0.06 mg/L, an MIC (E. coli; ATCC25922, read-out: BMD MIC, E. coli ATCC 25922 FDA control strain, MHB, mode of 6 independent biological replicates) of 0.015 mg/L (≈ 0.0391 µM) and an MIC (E. coli; ATCC700926 / MG1655, read-out: BMD MIC) of at most 0.03 mg/L. For the same compound, the MIC (E. coli; ATCC700928, read-out: BMD MIC, E. coli ATCC 700928 CFT073 UPEC, CAMHB, mode of 6 replicates) was at most 0.25 mg/L, the MIC (E. coli; read-out: BMD MIC) was at most 0.25 mg/L and the MIC (E. coli; read-out: MIC against E. coli AID#172 MDR clinical isolate, BMD) was 0.125 mg/L (≈ 0.326 µM). For the same compound, the MIC (E. coli; read-out: MIC against ESBL producing E. coli DSA 443, BMD) was 0.032 mg/L (≈ 0.0834 µM), the MIC (E. coli; read-out: MIC, broth microdilution, E. coli AUD172 parent strain not exposed to drug) was 0.015 mg/L (≈ 0.0391 µM) and the MIC (E. coli; read-out: MIC, broth microdilution, E. coli AUD172 spontaneous mutant, AA139 selection 4X, plate 2, colony 2, drug-free passage 1) was 0.015 mg/L (≈ 0.0391 µM). The MIC (E. coli; read-out: MIC, broth microdilution, E. coli AUD172 spontaneous mutant, AA139 selection 4X, plate 2, colony 2, drug-free passage 5) was 0.03 mg/L (≈ 0.0782 µM), the MIC (S. enterica Typhi) was 0.125 mg/L (≈ 0.326 µM) and the MIC (A. baumannii; ATCC19636, read-out: BMD MIC, A. baumannii ATCC 19636 type strain, CAMHB) was 1 mg/L (≈ 2.61 µM). The MIC (A. baumannii; ATCC19636, read-out: BMD MIC, A. baumannii ATCC 19636 type strain, MHB) was 0.5 mg/L (≈ 1.3 µM), the MIC (A. baumannii; read-out: BMD MIC, A. baumannii Greece CI, XDR, PmxR, MHB) was over 16 mg/L and the “BMD MIC” value (S. aureus; S. aureus ATCC 25923 MSSA, CAMHB, mode of 6 replicates) was 0.06 mg/L. For the same compound, the MIC (S. aureus; Staphylococcus aureus, ATCC25923 / MSSA, read-out: BMD MIC) was 0.06 mg/L (≈ 0.156 µM), the MIC (P. aeruginosa; ATCC27853, read-out: BMD MIC, P. aeruginosa ATCC 27853 control strain, CAMHB, mode of 6 replicates) was at most 0.25 mg/L and the MIC (P. aeruginosa; ATCC27853, read-out: MIC, broth microdilution, P. aeruginosa ATCC 27853 spontaneous mutant, AA139 selection 4X, plate 1, colony 1, drug-free passage 1) was 0.25 mg/L (≈ 0.652 µM). It also gave an MIC (P. aeruginosa; ATCC27853, read-out: MIC, broth microdilution, P. aeruginosa ATCC 27853 spontaneous mutant, AA139 selection 4X, plate 1, colony 1, drug-free passage 5) of 0.5 mg/L (≈ 1.3 µM), an MIC (P. aeruginosa; ATCC27853, read-out: MIC, broth microdilution, P. aeruginosa ATCC 27853 spontaneous mutant, AA139 selection 4X, plate 1, colony 2, drug-free passage 1) of 0.5 mg/L (≈ 1.3 µM) and an MIC (P. aeruginosa; ATCC27853, read-out: MIC, broth microdilution, P. aeruginosa ATCC 27853 spontaneous mutant, AA139 selection 4X, plate 1, colony 2, drug-free passage 5) of 0.25 mg/L (≈ 0.652 µM). It also gave an MIC (P. aeruginosa; ATCC27853, read-out: MIC, broth microdilution, P. aeruginosa ATCC 27853 spontaneous mutant, AA139 selection 4X, plate 1, colony 3, drug-free passage 1) of 1 mg/L (≈ 2.61 µM), an MIC (P. aeruginosa; ATCC27853, read-out: MIC, broth microdilution, P. aeruginosa ATCC 27853 spontaneous mutant, AA139 selection 4X, plate 1, colony 3, drug-free passage 5) of 0.5 mg/L (≈ 1.3 µM) and an MIC (P. aeruginosa; ATCC27853, read-out: MIC, broth microdilution, P. aeruginosa ATCC 27853 spontaneous mutant, AA139 selection 4X, plate 1, colony 4, drug-free passage 1) of 1 mg/L (≈ 2.61 µM). For the same compound, the MIC (P. aeruginosa; ATCC27853, read-out: MIC, broth microdilution, P. aeruginosa ATCC 27853 spontaneous mutant, AA139 selection 4X, plate 1, colony 4, drug-free passage 5) was 0.5 mg/L (≈ 1.3 µM), the MIC (P. aeruginosa; ATCC27853, read-out: MIC, broth microdilution, P. aeruginosa ATCC 27853 spontaneous mutant, AA139 selection 4X, plate 1, colony 5, drug-free passage 1) was 0.25 mg/L (≈ 0.652 µM) and the MIC (P. aeruginosa; ATCC27853, read-out: MIC, broth microdilution, P. aeruginosa ATCC 27853 spontaneous mutant, AA139 selection 4X, plate 1, colony 5, drug-free passage 5) was 0.5 mg/L (≈ 1.3 µM).
